Assay results: PubChem BioAssay AID2060491 (Molecular Pharmacology Branch, DTP, NCI, 2025)
“And” between values parts separate entries of the source, which are not always exact repeats. Identical values can stand only once.

System: 857933-349-R-J2-PDC complex spheroids, viability
Assay: Anticancer human tumor 857933-349-R-J2-PDC patient-derived colon adenocarcinoma cell line growth inhibition [GQUAD]
Details: for viability, T/C: stronger effect = lower value
Excerpt: DNA G-quadruplex Stabilizer Agents in Combinations in Complex Spheroids
A high-throughput screen of multi-cell type tumor spheroids was designed to identify active combinations of DNA G-quadruplex stabilizer agents and targeted small molecules. Complex spheroids include a stromal component modeled by human endothelial cells (HUVEC) and fibroblasts modeled by human mesenchymal stem cells (MSCs). The concentration ranges selected for each drug and investigational agent were based upon clinically achievable concentrations if the clinical Cmax of the agent was known.
Compounds. The drugs and investigational agents: pidnarulex (CX-5461; NSC782164), APTO-253 (NSC789042), BRACO-19 (NSC847499), peposertib (NSC802822), ceralasertib (NSC780249), elimusertib (NSC800525), camonsertib (NSC841442), AZD-1390 (NSC803789), olaparib (NSC753686), talazoparib (NSC767125), ART-558 (NSC835418), sotorasib (NSC818433), MRTX-1133 (NSC836407), SN-38 (NSC673596), topotecan (NSC609699), etoposide (NSC141540), doxorubicin (NSC123127), gemcitabine (NSC613327), 5-fluorouracil (NSC19893), paclitaxel (NSC125973), vemurafenib (NSC761431), panobinostat (NSC761190), R-306465 (JNJ-16241199; NSC773264), adavosertib (NSC754352), TP-3654 (NSC805149), carboplatin (NSC241240), KSQ-4279 (NSC840948), and staurosporine (NSC755774) were obtained from the National Cancer Institute (NCI) Developmental Therapeutics Program Chemical Repository (34). The FDA-approved anticancer drug set is available from the NCI Developmental Therapeutics Program. […] The stock solutions were prepared in dimethyl sulfoxide (DMSO, Sigma-Aldrich, St. Louis, MO, cat. D2650) at 800-fold the tested concentration and stored at -70 degrees C prior to their use. All drugs and investigational agents were tested over a range starting from a high concentration at or near the clinical Cmax and decreasing in half-log increments. If the clinical Cmax for an agent had not been determined, the highest concentration tested was 10 microM.
2.3 Cell Culture. All cells were maintained in an incubator at 37 degrees C and 5% CO2 with 95% humidity. The PDC lines were cultured according to standard operating procedures established by the NCI PDMR. All PDCs were thawed and cultured in Matrigel-coated flasks prepared with a working solution of 1X Ham's F-12 nutrient mix, without supplementation (Invitrogen, cat. 11765054), 100 U/mL penicillin-streptomycin (Invitrogen, cat. 15140122), and 2.5% Matrigel (Corning Inc., cat. 354248) for the first three passages. The 857933-349-R-J2-PDC line was cultured in 6C/Colon 1B media, which includes advanced DMEM/F-12 (Thermo Fisher Scientific, cat. 12634028), 10 mM HEPES (Thermo Fisher Scientific, cat. 15630080), 1X GlutaMAX supplement (Thermo Fisher Scientific, cat. 35050061), 0.1 mg/mL primocin (InvivoGen, cat. ant-pm-2), 10% defined fetal bovine serum, heat inactivated (HyClone Laboratories Inc., cat. SH30070.03HI), 50% L-WRN conditioned media (ATCC, cat. CRL-3276), 1.25 mM N-Acetyl-L-cysteine (Sigma-Aldrich, cat. A9165), 10 mM nicotinamide (Sigma-Aldrich, cat. N0636), 1X B-27 supplement (Thermo Fisher Scientific, cat. 17504044), 1X N-2 supplement (Thermo Fisher Scientific, cat. 17502048), 10 microM Y-27632 dihydrochloride (Tocris Bioscience, cat. 1254), and 50 ng/mL human EGF recombinant protein (Thermo Fisher Scientific, cat. PHG0311). The 485176-168-R4-J1-PDC line was cultured in Panc media, which includes all 6C/Colon 1B media components plus 100 ng/mL human FGF-10 (Thermo Fisher Scientific, cat. 100-26), 500 nM SB-431542 (Selleckchem, cat. S1067), and gastrin (Tocris, cat. 3006).
[…]
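Further: spheroids exposed to compounds for one week before readout.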
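Wherever viability, T/C is given: percent viability relative to vehicle DMSO wells taken as 100%.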

`CCCS(=O)(=O)Nc1ccc(F)c(C(=O)c2c[nH]c3ncc(-c4ccc(Cl)cc4)cc23)c1F` was tested, and the viability, T/C (compound 0.0316 µM) was 104% and 111% and 98.5%, the viability, T/C (compound 0.1 µM) was 97.2% and 102% and 92% and the viability, T/C (compound 0.316 µM) was 97.4% and 105% and 95.5%. For the same molecule, the viability, T/C (compound 1 µM) was 102% and 101% and 96.5%, the viability, T/C (compound 3.16 µM) was 84.9% and 90.6% and 95.8% and the viability, T/C (compound 10 µM) was 4.82% and 5.71% and 6.52%. The IC50 (curve of compound) was 5.23 µM and 5.49 µM and 5.7 µM.

Molecule `CC[C@@]1(O)C(=O)OCc2c1cc1n(c2=O)Cc2cc3c(CN(C)C)c(O)ccc3nc2-1` + Cc1[nH]c2ccc(F)cc2c1-c1nc2c3cccnc3c3ncccc3c2[nH]1 has an IC50 (curve of first compound, second compound 0.0316 µM) of 0.153 µM, an IC50 (curve of first compound, second compound 0.1 µM) of 0.13 µM and an IC50 (curve of first compound, second compound 0.316 µM) of 0.144 µM. It also gave an IC50 (curve of first compound, second compound 1 µM) of 0.164 µM, an IC50 (curve of first compound, second compound 3.16 µM) of 0.132 µM and an IC50 (curve of first compound, second compound 10 µM) of 0.192 µM. The viability, T/C (second compound 0.0316 µM, first compound 0.000999 µM) was 96.7%, the viability, T/C (second compound 0.0316 µM, first compound 0.00316 µM) was 94.6% and the viability, T/C (second compound 0.0316 µM, first compound 0.00999 µM) was 89.8%. It also gave a viability, T/C (second compound 0.0316 µM, first compound 0.0316 µM) of 63.5%, a viability, T/C (second compound 0.0316 µM, first compound 0.0999 µM) of 60.8% and a viability, T/C (second compound 0.0316 µM, first compound 0.316 µM) of 39.6%. The viability, T/C (second compound 0.1 µM, first compound 0.000999 µM) was 91.8%, the viability, T/C (second compound 0.1 µM, first compound 0.00316 µM) was 99.7% and the viability, T/C (second compound 0.1 µM, first compound 0.00999 µM) was 90.2%. The viability, T/C (second compound 0.1 µM, first compound 0.0316 µM) was 67.7%, the viability, T/C (second compound 0.1 µM, first compound 0.0999 µM) was 56.6% and the viability, T/C (second compound 0.1 µM, first compound 0.316 µM) was 39.7%. The viability, T/C (second compound 0.316 µM, first compound 0.000999 µM) was 102%, the viability, T/C (second compound 0.316 µM, first compound 0.00316 µM) was 93.6% and the viability, T/C (second compound 0.316 µM, first compound 0.00999 µM) was 97.6%. The viability, T/C (second compound 0.316 µM, first compound 0.0316 µM) was 72.6%, the viability, T/C (second compound 0.316 µM, first compound 0.0999 µM) was 54.9% and the viability, T/C (second compound 0.316 µM, first compound 0.316 µM) was 42.8%. The viability, T/C (second compound 1 µM, first compound 0.000999 µM) was 103%, the viability, T/C (second compound 1 µM, first compound 0.00316 µM) was 89.1% and the viability, T/C (second compound 1 µM, first compound 0.00999 µM) was 92.8%. For the same molecule, the viability, T/C (second compound 1 µM, first compound 0.0316 µM) was 73.9%, the viability, T/C (second compound 1 µM, first compound 0.0999 µM) was 60.5% and the viability, T/C (second compound 1 µM, first compound 0.316 µM) was 36.6%. The viability, T/C (second compound 3.16 µM, first compound 0.000999 µM) was 97.8%, the viability, T/C (second compound 3.16 µM, first compound 0.00316 µM) was 95.7% and the viability, T/C (second compound 3.16 µM, first compound 0.00999 µM) was 88.8%. The viability, T/C (second compound 3.16 µM, first compound 0.0316 µM) was 90.8%, the viability, T/C (second compound 3.16 µM, first compound 0.0999 µM) was 53.4% and the viability, T/C (second compound 3.16 µM, first compound 0.316 µM) was 39.2%. The viability, T/C (second compound 10 µM, first compound 0.000999 µM) was 105%, the viability, T/C (second compound 10 µM, first compound 0.00316 µM) was 86.2% and the viability, T/C (second compound 10 µM, first compound 0.00999 µM) was 89.4%. For the same molecule, the viability, T/C (second compound 10 µM, first compound 0.0316 µM) was 73.7%, the viability, T/C (second compound 10 µM, first compound 0.0999 µM) was 62.6% and the viability, T/C (second compound 10 µM, first compound 0.316 µM) was 40.4%.
